In ChEMBL document CHEMBL1201862, “PubChem BioAssay data set” (2004):
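Compound exposure: 48 hours, 5 concentrations, 96-well plates. The concentration for 50% growth inhibition is given as GI50.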 Active and inactive are the calls of the source. No stated cut-off is given here; in the data, active = GI50 up to about 1.1 µM and inactive = higher.

Experiments:
Assay in all cases: NCI-60 cell line screen, 48 h
[1] = tested on: SW-620
[2] = tested on: COLO 205
[3] = tested on: UACC-257
[4] = tested on: MDA-MB-435
[5] = tested on: DU-145
[6] = tested on: MDA-MB-231
[7] = tested on: SF-539
[8] = tested on: Hs-578T
[9] = tested on: HCT-15
[10] = tested on: UO-31
[11] = tested on: HCC 2998
[12] = tested on: SF-295
[13] = tested on: 786-0
[14] = tested on: Malme-3M
[15] = tested on: CCRF-CEM
[16] = tested on: BT-549
[17] = tested on: NCI/ADR-RES
[18] = tested on: OVCAR-4
[19] = tested on: NCI-H522
[20] = tested on: LOX IMVI
[21] = tested on: TK-10
[22] = tested on: UACC-62
[23] = tested on: A549
[24] = tested on: RXF 393
[25] = tested on: NCI-H226
[26] = tested on: HL-60
[27] = tested on: SK-MEL-28
[28] = tested on: HOP-62
[29] = tested on: SK-MEL-2
[30] = tested on: SNB-19
[31] = tested on: SF-268
[32] = tested on: U-251
[33] = tested on: A498
[34] = tested on: M14
[35] = tested on: SR
[36] = tested on: OVCAR-3
[37] = tested on: EKVX
[38] = tested on: OVCAR-5
[39] = tested on: NCI-H460
[40] = tested on: SK-MEL-5
[41] = tested on: ACHN
[42] = tested on: MCF7
[43] = tested on: SN12C
[44] = tested on: SNB-75
[45] = tested on: MDA-N
[46] = tested on: NCI-H23
[47] = tested on: RPMI-8226
[48] = tested on: IGROV-1
[49] = tested on: PC-3
[50] = tested on: HT-29
[51] = tested on: KM12
[52] = tested on: HOP-92
[53] = tested on: MOLT-4
[54] = tested on: T47D
[55] = tested on: SK-OV-3
[56] = tested on: OVCAR-8
[57] = tested on: HCT-116
[58] = tested on: K562
[59] = tested on: CAKI-1

CCOC(=O)/C=C(\C(=O)OCC)n1cc(C)c(=O)n(Cc2cn(CCCCOC(C)=O)nn2)c1=O
GI50 [1]: 3.47 µM (inactive) | GI50 [2]: 2.98 µM (inactive) | GI50 [3]: 16.1 µM (inactive) | GI50 [4]: 9.95 µM (inactive) | GI50 [5]: 19.8 µM (inactive) | GI50 [6]: 15.7 µM (inactive) | GI50 [7]: 1.95 µM (inactive) | GI50 [8]: 16.3 µM (inactive) | GI50 [9]: 6.37 µM | GI50 [10]: 14.5 µM (inactive) | GI50 [11]: 18.3 µM (inactive) | GI50 [12]: 18.4 µM (inactive) | GI50 [13]: 4.43 µM (inactive) | GI50 [14]: 2.04 µM (inactive) | GI50 [15]: 1.83 µM (inactive) | GI50 [16]: 10.5 µM (inactive) | GI50 [17]: 19.6 µM (inactive) | GI50 [18]: 23.2 µM (inactive) | GI50 [19]: 1.41 µM (inactive) | GI50 [20]: 6.62 µM (inactive) | GI50 [21]: 7.38 µM (inactive) | GI50 [22]: 15.9 µM (inactive) | GI50 [23]: 19.4 µM (inactive) | GI50 [24]: 1.48 µM (inactive) | GI50 [25]: 11.3 µM (inactive) | GI50 [26]: 2.27 µM (inactive) | GI50 [27]: 11.5 µM (inactive) | GI50 [28]: 18.4 µM (inactive) | GI50 [29]: 15.9 µM (inactive) | GI50 [30]: 20 µM (inactive) | GI50 [31]: 14.2 µM (inactive) | GI50 [32]: 15.1 µM (inactive) | GI50 [33]: 18.9 µM (inactive) | GI50 [34]: 11.9 µM (inactive) | GI50 [35]: 3.05 µM (inactive) | GI50 [36]: 13.3 µM (inactive) | GI50 [37]: 9.04 µM (inactive) | GI50 [38]: 12.4 µM (inactive) | GI50 [39]: 8.18 µM (inactive) | GI50 [40]: 17.1 µM (inactive) | GI50 [41]: 4.28 µM (inactive) | GI50 [42]: 5.47 µM (inactive) | GI50 [43]: 20.7 µM (inactive) | GI50 [44]: 15.7 µM (inactive) | GI50 [45]: 20.7 µM (inactive) | GI50 [46]: 14.2 µM (inactive) | GI50 [47]: 7.35 µM (inactive) | GI50 [48]: 13.6 µM (inactive) | GI50 [49]: 14.3 µM (inactive) | GI50 [50]: 8.32 µM (inactive) | GI50 [51]: 18.5 µM (inactive) | GI50 [52]: 2.15 µM (inactive) | GI50 [53]: 2.44 µM (inactive) | GI50 [54]: 11.6 µM (inactive) | GI50 [55]: 32.4 µM (inactive) | GI50 [56]: 8.02 µM (inactive) | GI50 [57]: 11.3 µM (inactive) | GI50 [58]: 2.53 µM (inactive) | GI50 [59]: 3.92 µM (inactive)
